Data: ChEMBL document CHEMBL4699470, “N-Substituted piperazine derivatives as potential multitarget agents acting on histamine H receptor and cancer resistance proteins” (Bioorg Med Chem Lett, 2020)

Experiments:
L5178Y [1] = experiment: Antiproliferative activity against mouse L5178Y cells by MTT assay; assay type: functional, cell-based
L5178Y [2] = experiment: Cytotoxicity against mouse L5178Y cells assessed as reduction in cell viability by MTT assay; assay type: functional, cell-based
L5178Y [3] = experiment: Antiproliferative activity against multidrug resistance mouse L5178Y cells expressing human MDR1 by MTT assay; assay type: functional, cell-based
[4] = target: T1, ATP-dependent translocase ABCB1 (Homo sapiens, UniProt P08183); experiment: Inhibition of human ABCB1 in expressed in multidrug resistant mouse L5178Y cells assessed as fluorescence activity ratio at 2 uM by rhodamine 123 retention assay relative to parental L5178Y cells; assay type: cell-based
[5] = target: T1, ATP-dependent translocase ABCB1; experiment: Inhibition of human ABCB1 in expressed in multidrug resistant mouse L5178Y cells assessed as fluorescence activity ratio at 20 uM by rhodamine 123 retention assay relative to parental L5178Y cells; assay type: cell-based
L5178Y [6] = experiment: Cytotoxicity against multidrug resistance mouse L5178Y cells expressing human MDR1 assessed as reduction in cell viability by MTT assay; assay type: functional, cell-based
Homo sapiens = species on record: Homo sapiens; experiment: Substrate activity at Pgp (unknown origin) assessed as increase in ATP basal consumption at 100 uM by Pgp-Glo luminescence assay relative to control
[7] = target: T1, ATP-dependent translocase ABCB1; experiment: Inhibition of human ABCB1 in expressed in multidrug resistant mouse L5178Y cells assessed as fluorescence activity ratio by rhodamine 123 retention assay relative to verapamil; assay type: cell-based

T1 sequence (P08183 whole entry): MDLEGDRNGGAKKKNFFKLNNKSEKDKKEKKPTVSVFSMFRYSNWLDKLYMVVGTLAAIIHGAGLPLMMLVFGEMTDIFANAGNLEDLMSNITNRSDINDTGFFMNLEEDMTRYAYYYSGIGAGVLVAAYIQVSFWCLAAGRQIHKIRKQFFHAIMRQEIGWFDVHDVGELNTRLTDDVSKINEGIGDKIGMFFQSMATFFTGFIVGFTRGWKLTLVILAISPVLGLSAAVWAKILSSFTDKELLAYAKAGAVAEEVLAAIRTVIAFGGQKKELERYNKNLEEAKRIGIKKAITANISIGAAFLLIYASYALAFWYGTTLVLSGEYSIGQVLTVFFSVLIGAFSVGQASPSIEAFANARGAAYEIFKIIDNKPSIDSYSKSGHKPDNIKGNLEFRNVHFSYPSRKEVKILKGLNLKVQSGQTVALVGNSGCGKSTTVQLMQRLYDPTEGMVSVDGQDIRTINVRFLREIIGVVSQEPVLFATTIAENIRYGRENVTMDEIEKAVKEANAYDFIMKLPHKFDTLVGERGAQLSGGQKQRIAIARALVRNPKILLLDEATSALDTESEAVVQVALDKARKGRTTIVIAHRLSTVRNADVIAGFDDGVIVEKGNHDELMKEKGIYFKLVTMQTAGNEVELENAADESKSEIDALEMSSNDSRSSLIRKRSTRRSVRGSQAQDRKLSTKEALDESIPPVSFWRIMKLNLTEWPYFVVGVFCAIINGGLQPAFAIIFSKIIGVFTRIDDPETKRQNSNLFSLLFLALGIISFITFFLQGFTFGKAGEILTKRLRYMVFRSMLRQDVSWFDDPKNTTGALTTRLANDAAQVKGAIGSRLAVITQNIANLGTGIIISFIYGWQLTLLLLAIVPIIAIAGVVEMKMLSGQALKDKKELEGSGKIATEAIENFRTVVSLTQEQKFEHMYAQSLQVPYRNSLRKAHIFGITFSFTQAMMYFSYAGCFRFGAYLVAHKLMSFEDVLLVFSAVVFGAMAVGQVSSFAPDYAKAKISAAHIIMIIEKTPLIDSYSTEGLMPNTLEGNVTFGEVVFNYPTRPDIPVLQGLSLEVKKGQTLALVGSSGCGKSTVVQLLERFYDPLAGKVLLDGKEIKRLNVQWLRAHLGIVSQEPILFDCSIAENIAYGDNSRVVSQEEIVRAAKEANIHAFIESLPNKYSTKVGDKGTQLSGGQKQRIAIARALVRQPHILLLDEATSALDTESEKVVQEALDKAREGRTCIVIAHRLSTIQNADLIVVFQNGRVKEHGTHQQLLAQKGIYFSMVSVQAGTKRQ

| SMILES | IC50 (L5178Y [1]) [µM] | IC50 (L5178Y [2]) [µM] | IC50 (L5178Y [3]) [µM] | Ratio [4] | Ratio [5] | IC50 (L5178Y [6]) [µM] | Activity (Homo sapiens) [%] | Ratio [7] |
| --- | --- | --- | --- | --- | --- | --- | --- | --- |
| CC(=O)c1ccc(OCCCCN2CCN(c3cccnc3)CC2)cc1 | 24.2 | 69 | 29.8 | 0.84 | 0.99 | 44 |  |  |
| CC(C)(C)c1ccc(OCCCCN2CCN(c3ccccn3)CC2)cc1 | 11.9 | 15.1 | 16.4 | 1.74 | 38.41 | 16.7 | > 100 | 1.6 |
| CCC(=O)c1ccc(OCCCN2CCN(c3cnccn3)CC2)cc1 | 24.3 | 47.5 | 30 | 0.83 | 0.82 | 60.3 |  |  |
| CCC(C)(C)c1ccc(OCCCCN2CCN(c3ncccn3)CC2)cc1 | 17.7 | 46.4 | 18.9 | 2.17 | 32.32 | 32.1 |  | 1.6 |
| CCC(=O)c1ccc(OCCCN2CCN(c3ncccn3)CC2)cc1 | 36.9 | > 100 | 41.3 | 0.92 | 1.02 | 54.6 |  |  |
| CCC(C)(C)c1ccc(OCCCCN2CCN(c3cccnc3)CC2)cc1 | 3.23 | 9.23 | 3.68 | 5.95 | 19.26 | 7.59 | > 100 | 1.6 |
| CC(=O)c1ccc(OCCCN2CCN(c3ccccn3)CC2)cc1 | 27.1 |  | 32.8 | 0.92 | 0.84 | 49.7 |  |  |
| CSc1ccc2c(c1)N(CCC1CCCCN1C)c1ccccc1S2 (configuration not stated) [THIORIDAZINE] |  | 12.7 |  |  |  | 7.43 |  |  |
| CC(C)(C)c1ccc(OCCCCN2CCN(c3cnccn3)CC2)cc1 | 9.86 | 18.3 | 9.68 | 1.36 | 17.85 | 27.6 |  | 1.6 |
| CC(=O)c1ccc(OCCCN2CCN(c3ncccn3)CC2)cc1 | 53.2 | > 100 | 77.5 | 1.06 | 1.03 |  |  |  |
| CCC(C)(C)c1ccc(OCCCCN2CCN(c3cnccn3)CC2)cc1 | 9.56 | 12.6 | 9.49 | 1.85 | 73.64 | 12.8 | > 100 | 1.6 |
| CC(=O)c1ccc(OCCCCN2CCN(c3ncccn3)CC2)cc1 | 31.6 | > 100 | 38.9 | 0.86 | 1.28 | 63.9 |  |  |
| CC(=O)c1ccc(OCCCN2CCN(c3ccncc3)CC2)cc1 | 42.3 | > 100 | 43.8 | 1.29 | 1.61 |  |  |  |
| CC(C)(C)c1ccc(OCCCCN2CCN(c3cccnc3)CC2)cc1 | 5.48 | 11.7 | 5.99 | 2.81 | 25.33 | 10.5 | > 100 | 1.6 |
| CC(C)(C)c1ccc(OCCCCN2CCN(c3ncccn3)CC2)cc1 | 11.3 | 20.8 | 9.88 | 2.7 | 34.05 | 17.6 |  | 1.6 |
| CC(C)(C)c1ccc(OCCCN2CCN(c3ncccn3)CC2)cc1 | 25.6 | 40.4 | 20.7 | 0.93 | 1.02 | 49.4 |  |  |
| CC(=O)c1ccc(OCCCCN2CCN(c3ccccn3)CC2)cc1 | 24.1 | 63.7 | 25.5 | 0.98 | 8.71 | 46.2 |  | 1.6 |
